Measurements taken from PMC11699025 (Natural Products and Bioprospecting, 2025).
“And” between values parts separate entries of the source, which are not always exact repeats. Equal values may be shown once.

What was measured:
[1] = target: T1, SARS-CoV-2 Mpro (Severe acute respiratory syndrome coronavirus 2, UniProt P0DTD1); experiment: biochemical; format: binding; details: pH 7.4, read-out: ka
[2] = target: T2, BtCoV Rp3 PLpro (Bat coronavirus Rp3/2004, UniProt P0C6W6); experiment: biochemical; format: binding
[3] = target: T3, MERS-CoV Mpro (Middle East respiratory syndrome-related coronavirus, UniProt K9N7C7); experiment: biochemical; format: binding
[4] = in vitro; details: human
[5] = target: T4, SARS-CoV Mpro (Severe acute respiratory syndrome coronavirus, UniProt P0C6X7); experiment: biochemical; format: binding
[6] = tested on: HCoV-OC43; experiment: microbe, parasite or virus in culture; format: cell-based, human coronavirus OC43; details: for EC50: Betacoronavirus 1, OC43, RD, 48 h
[7] = tested on: RD cells; details: concentrations up to 100 µM
[8] = target: T5, SARS-CoV-2 PLpro (Severe acute respiratory syndrome coronavirus 2, UniProt P0DTD1); experiment: biochemical; format: binding; details: pH 7.4, read-out: ka
[9] = target: T6, BtCoV Rp3 Mpro (Bat coronavirus Rp3/2004, UniProt P0C6W6); experiment: biochemical; format: binding
[10] = target: T1, SARS-CoV-2 Mpro; experiment: biochemical
[11] = target: T5, SARS-CoV-2 PLpro; experiment: biochemical
[12] = target: T7, SARS-CoV PLpro (Severe acute respiratory syndrome coronavirus, UniProt P0C6X7); experiment: biochemical; format: binding
[13] = target: T8, MERS-CoV PLpro (Middle East respiratory syndrome-related coronavirus, UniProt K9N7C7); experiment: biochemical; format: binding
[14] = target: T2, BtCoV Rp3 PLpro; format: binding
[15] = target: T4, SARS-CoV Mpro; format: binding
[16] = target: SARS-CoV-2 PLpro WT (Severe acute respiratory syndrome coronavirus 2, UniProt P0DTD1); format: binding
[17] = target: T8, MERS-CoV PLpro; format: binding
[18] = target: T7, SARS-CoV PLpro; experiment: biochemical
[19] = target: T6, BtCoV Rp3 Mpro; experiment: biochemical
[20] = target: T3, MERS-CoV Mpro; format: binding

T8 sequence (K9N7C7 1552-1823 limits assumed): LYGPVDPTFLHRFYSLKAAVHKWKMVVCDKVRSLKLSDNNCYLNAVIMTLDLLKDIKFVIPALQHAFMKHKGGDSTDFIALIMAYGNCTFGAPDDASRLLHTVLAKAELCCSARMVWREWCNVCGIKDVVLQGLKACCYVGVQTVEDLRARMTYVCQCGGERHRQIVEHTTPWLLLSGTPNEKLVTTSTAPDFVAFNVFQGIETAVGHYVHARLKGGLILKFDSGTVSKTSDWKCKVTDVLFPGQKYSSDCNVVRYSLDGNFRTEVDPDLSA
T3 sequence (K9N7C7 3248-3553 limits assumed): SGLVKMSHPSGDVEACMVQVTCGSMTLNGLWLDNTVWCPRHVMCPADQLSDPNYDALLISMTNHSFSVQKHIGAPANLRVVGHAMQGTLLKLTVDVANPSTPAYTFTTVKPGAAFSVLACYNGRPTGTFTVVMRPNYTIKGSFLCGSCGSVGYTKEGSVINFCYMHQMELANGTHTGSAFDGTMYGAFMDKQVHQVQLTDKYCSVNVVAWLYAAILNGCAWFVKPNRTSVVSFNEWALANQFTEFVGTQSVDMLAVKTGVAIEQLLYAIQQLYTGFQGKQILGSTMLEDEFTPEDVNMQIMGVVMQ

SMILES: Cc1cc(O)c(O)c(Oc2cc(C)cc(O)c2O)c1 [Violaceol I, violaceol I]
- kon [1]: 969 M⁻¹ s⁻¹
- kon ([2]; pH 7.4, read-out: ka): 551 M⁻¹ s⁻¹
- kon ([3]; pH 7.4, read-out: ka): 454 M⁻¹ s⁻¹
- CC50 at 48 h [4]: > 100000 nM
- kon ([5]; pH 7.4, read-out: ka): 547 M⁻¹ s⁻¹
- Selection Index (SI) [6]: >42.02
- EC50 [6]: 2380 ± 20 nM
- influence on cell viability [7]: no influence
- kon [8]: 494 M⁻¹ s⁻¹
- kon ([9]; pH 7.4, read-out: ka): 532 M⁻¹ s⁻¹
- IC50 [10]: 8270 ± 1150 nM
- IC50 [11]: 42300 ± 1020 nM
- kon ([12]; pH 7.4, read-out: ka): 516 M⁻¹ s⁻¹
- kon ([13]; pH 7.4, read-out: ka): 479 M⁻¹ s⁻¹

SMILES: Cc1cc(O)c(O)c(Oc2cc(C)cc(O)c2Oc2cc(C)cc(O)c2O)c1 [Sydowiol B, sydowiol B]
- Kd [2]: 11800 nM
- Kd [3]: 9350 nM
- CC50 at 48 h [4]: > 200000 nM
- Kd [5]: 2540 nM
- Tm value [14]: 53.59 ± 0.20 (4.00) ℃ and 53.87 ± 0.13 (4.28) ℃ and 52.79 ± 0.27 (3.20) ℃
- △Tm [14]: 53.59 ± 0.20 (4.00) ℃ and 53.87 ± 0.13 (4.28) ℃ and 52.79 ± 0.27 (3.20) ℃
- EC50 [6]: 690 ± 100 nM
- influence on cell viability [7]: no influence
- Tm value [15]: 57.17 ± 0.19 (1.25) ℃ and 56.82 ± 0.25 (0.90) ℃ and 56.37 ± 0.28 (0.45) ℃
- Tm value [16]: 51.24 ± 0.36 (5.29) ℃ and 50.31 ± 0.06 (4.36) ℃
- Kd [9]: 1930 nM
- Tm value [17]: 57.67 ± 0.32 (2.78) ℃ and 57.20 ± 0.13 (2.31) ℃ and 56.95 ± 0.13 (2.06) ℃
- IC50 [18]: 2420 ± 1100 nM
- IC50 [19]: 1160 ± 1230 nM
- Kd [12]: 14200 nM
- Tm value [20]: 47.47 ± 0.33 (1.37) ℃ and 47.33 ± 0.00 (1.23) ℃ and 47.27 ± 0.16 (1.17) ℃
- Kd [13]: 450 nM
